Reference: PubChem BioAssay (NCI)
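Five concentrations, 48 hours, 96-well plates. GI50: concentration for 50% inhibition of growth. The concentration for full growth arrest is given as TGI.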

Tests used:
Assay in all cases: inhibition of tumour cell growth, NCI panel, 48 h
SR leukemia = system: SR leukemia
NCI-H460 lung = system: NCI-H460 lung
UACC-62 melanoma = system: UACC-62 melanoma
COLO 205 colon = system: COLO 205 colon
OVCAR-8 ovarian = system: OVCAR-8 ovarian
MOLT-4 leukemia = system: MOLT-4 leukemia
SNB-19 CNS = system: SNB-19 CNS
MDA-MB-435 = system: MDA-MB-435
SK-OV-3 ovarian = system: SK-OV-3 ovarian
OVCAR-4 ovarian = system: OVCAR-4 ovarian

| Structure (SMILES) | TGI (SR leukemia) | TGI (NCI-H460 lung) | TGI (UACC-62 melanoma) | TGI (COLO 205 colon) | TGI (OVCAR-8 ovarian) | TGI (MOLT-4 leukemia) | TGI (SNB-19 CNS) | TGI (MDA-MB-435) | TGI (SK-OV-3 ovarian) | TGI (OVCAR-4 ovarian) | GI50 (UACC-62 melanoma) | GI50 (NCI-H460 lung) | GI50 (OVCAR-4 ovarian) | GI50 (COLO 205 colon) | GI50 (OVCAR-8 ovarian) | GI50 (MOLT-4 leukemia) | GI50 (SNB-19 CNS) | GI50 (MDA-MB-435) | GI50 (SK-OV-3 ovarian) |
| --- | --- | --- | --- | --- | --- | --- | --- | --- | --- | --- | --- | --- | --- | --- | --- | --- | --- | --- | --- |
| COc1ccc(Nc2nc3ccccc3nc2C(=O)O)cc1OC | > 100 µM | > 100 µM | > 100 µM | > 100 µM | > 100 µM | > 100 µM | > 100 µM | > 100 µM | > 100 µM |  |  |  |  |  |  |  |  |  |  |
| N#Cc1c(-c2ccccc2)c(C#N)c(=O)n(C2OC(CO)C(O)C(O)C2O)c1S (centres undefined) | > 100 µM | > 100 µM | > 100 µM |  | > 100 µM | > 100 µM | > 100 µM | > 100 µM | > 100 µM |  |  |  |  |  |  |  |  |  |  |
| C=CCc1cccc(/C=N\N=C(/N)NO)c1O |  | 17.1 µM | 7.11 µM | > 29.7 µM | 52.6 µM | > 26.8 µM | > 94.4 µM |  | 32.5 µM | 38.3 µM |  |  |  |  |  |  |  |  |  |
| C[N+](C)([O-])Cc1cc(-c2ccccc2)ccc1O | > 100 µM | > 100 µM | > 100 µM |  |  | > 100 µM | > 100 µM | > 100 µM |  | > 100 µM |  |  |  |  |  |  |  |  |  |
| O=C(N/N=C(/COc1cccc(Cl)c1)N=Cc1cccnc1)c1ccncc1 |  | > 100 µM | > 100 µM | > 100 µM | > 100 µM | > 100 µM | > 100 µM | > 100 µM | > 100 µM | > 100 µM |  |  |  |  |  |  |  |  |  |
| CCCCCCCCCc1c(O)c(O)c(CCCCCCCCC)c(CCCCCCCCC)c1CCCCCCCCC |  | > 100 µM | > 100 µM | > 100 µM | > 100 µM | > 100 µM | > 100 µM | > 100 µM | > 100 µM | > 100 µM |  |  |  |  |  |  |  |  |  |
| O=[N+]([O-])c1sc2ccc(Cl)cc2c1Nc1ccc(Cl)cc1 |  | > 100 µM | > 100 µM | > 100 µM | > 100 µM | > 100 µM | > 100 µM | > 100 µM | > 100 µM | > 100 µM |  |  |  |  |  |  |  |  |  |
| COc1cc(C23OCC(Cc4cc5c(cc42)OCO5)C3CO)cc(OC)c1OC (centres undefined) | > 100 µM | > 100 µM | > 100 µM | > 100 µM | > 100 µM | > 100 µM | > 100 µM |  | > 28.8 µM | > 100 µM | 4.27 µM |  |  |  |  |  |  |  |  |
| COc1ccc2c(c1)C(N)=C(Cc1ccncc1)C2=O |  | > 100 µM | > 100 µM | > 100 µM | > 100 µM | > 100 µM | > 100 µM | > 100 µM | > 100 µM | > 100 µM |  |  |  |  |  |  |  |  |  |
| CC(O[Si](c1ccccc1)(c1ccccc1)C(C)(C)C)[C@H](NC(=O)OC(C)(C)C)C(=O)O (some centres undefined) | 90.2 µM | > 100 µM |  | 46.1 µM | > 100 µM | 46.1 µM | > 100 µM |  | > 100 µM | > 100 µM |  |  |  |  |  |  |  |  |  |
| O=[N+]([O-])c1cccc2nc3ccccc3c(NCCCN3CCCCC3)c12 |  | < 0.0134 µM | 0.0298 µM | 0.0201 µM | 0.118 µM | 0.0681 µM | 0.444 µM | 0.0227 µM | 0.1 µM | 0.031 µM |  |  |  |  |  |  |  |  |  |
| NC(=S)NS(=O)(=O)c1ccc(F)cc1F |  | > 100 µM | > 100 µM | > 100 µM | > 100 µM | > 100 µM | > 100 µM | > 100 µM | > 100 µM | > 100 µM |  |  |  |  |  |  |  |  |  |
| CC1=CC(C)(C)Nc2ccc(CSc3ccccc3)cc21 |  | 67.4 µM | > 100 µM | 52.8 µM | > 100 µM |  | > 100 µM | 63.4 µM | 90.1 µM | 46.1 µM |  |  |  |  |  |  |  |  |  |
| CC(=O)N/C(=C\c1ccc(/C=C(\NC(C)=O)C2=NC3C(=O)c4ccccc4C(=O)C3N2)cc1)C1=NC2C(=O)c3ccccc3C(=O)C2N1 (centres undefined) |  | > 100 µM | > 100 µM | > 100 µM | > 100 µM | 26.6 µM | > 100 µM |  | > 100 µM | > 100 µM |  |  |  |  |  |  |  |  |  |
| C=C1CC(COc2ccc3c(C)cc(=O)oc3c2)(c2ccccc2)OC1=O (centres undefined) | > 31.6 µM | 23.5 µM | 3.05 µM | 2.76 µM | 5.57 µM | 6.77 µM | 29 µM | 8.03 µM | 14.9 µM |  |  |  |  |  |  |  |  |  |  |
| O=C(O)Cn1c2c(c3c(O)cccc31)C(=O)c1ccccc1-2 |  | > 100 µM |  | > 100 µM | > 100 µM | > 100 µM | > 100 µM | > 100 µM | > 100 µM | > 100 µM |  | > 100 µM | > 100 µM | > 100 µM | > 100 µM | > 100 µM | > 100 µM | > 100 µM | > 100 µM |
| COC(=O)c1cc(C)n(CN(Cc2ccccc2)Cn2nc(C(=O)OC)cc2C)n1 |  | > 100 µM | > 100 µM | > 78.1 µM | > 100 µM | > 100 µM | > 100 µM | > 100 µM | > 100 µM | > 100 µM |  |  |  |  |  |  |  |  |  |
